ChEMBL document CHEMBL5344442, “Antiviral Activity of Lipophilic Nucleoside Tetraphosphate Compounds” (J Med Chem, 2024)
One block for each compound: values may come before it.

Key:
[1] = Drug metabolism in PBS buffer assessed as d4TMP metabolite formation at pH 7.3 by RP-18-HPLC analysis; type: ADME
[2] = Lipophilicity of the compound assessed as retention time by RP-18-HPLC analysis; type: physicochemical
[3] = Drug metabolism assessed as d4TTP metabolite formation in presence of pig liver esterase by RP-18-HPLC analysis; type: ADME, Sus scrofa; settings: isolated protein
[4] = Drug metabolism in human CEM/0 cells assessed as d4TDP metabolite formation by RP18-HPLC analysis; type: ADME, cell-based; settings: ccrf-cem
[5] = Drug metabolism in human CEM/0 cells assessed as half life of d4TTP by RP18-HPLC analysis; type: ADME, cell-based; settings: ccrf-cem
[6] = tested on: Human immunodeficiency virus 2; assay: Antiviral activity against HIV-2 ROD infected in human CEM/0 cells assessed as inhibition of virus-induced cytopathogenicity measured after 4 to 5 days by microscopic analysis; type: functional, organism-based; settings: Human immunodeficiency virus 2, ROD, CCRF-CEM
[7] = tested on: Human immunodeficiency virus 1; assay: Antiviral activity against HIV-1 HE infected in human CEM/0 cells assessed as inhibition of virus-induced cytopathogenicity measured after 4 to 5 days by microscopic analysis; type: functional, organism-based; settings: Human immunodeficiency virus 1, HE, CCRF-CEM
[8] = Half life of the compound in PBS buffer at pH 7.3 by RP-18-HPLC analysis; type: physicochemical
[9] = Selectivity index, ratio of CC50 for cytotoxicity against human CEM/0 cells to EC50 for antiviral activity against HIV-2 ROD infected in human CEM/0 cells; type: toxicity, cell-based; settings: read-out: Ratio CC50/EC50
[10] = Cytotoxicity against human CEM/0 cells assessed as inhibition of cell proliferation; type: toxicity, cell-based, CCRF-CEM
[11] = tested on: Human immunodeficiency virus 2; assay: Antiviral activity against HIV-2 ROD infected in human CEM/TK- cells assessed as inhibition of virus-induced cytopathogenicity measured after 4 to 5 days by microscopic analysis; type: functional, organism-based; settings: Human immunodeficiency virus 2, ROD, CCRF-CEM
[12] = Stability of compound assessed as pig liver esterase mediated hydrolysis by measuring half life by RP-18-HPLC analysis; type: ADME, tissue-based, Sus scrofa
[13] = Half life of the compound in human CEM/0 extracts by RP-18-HPLC analysis; type: ADME, CCRF-CEM; settings: CEM/0 cell extracts
[14] = Drug metabolism assessed as [hydroxy-[hydroxy-[hydroxy-[[(2S,5R)-5-(5-methyl-2,4-dioxo-pyrimidin-1-yl)-2,5-dihydrofuran-2-yl]methoxy]phosphoryl]oxy-phosphoryl]oxy-phosphoryl]oxy-octadecyl-phosphinic acid formation in presence of pig liver esterase by RP-18-HPLC analysis; type: ADME, Sus scrofa; settings: isolated protein
[15] = Drug metabolism in human CEM/0 cells assessed as [hydroxy-[hydroxy-[hydroxy-[[(2S,5R)-5-(5-methyl-2,4-dioxo-pyrimidin-1-yl)-2,5-dihydrofuran-2-yl]methoxy]phosphoryl]oxy-phosphoryl]oxy-phosphoryl]oxy-octadecyl-phosphinic acid formation by RP18-HPLC analysis; type: ADME, cell-based; settings: ccrf-cem
[16] = Drug metabolism in human CEM/0 cells assessed as d4TTP metabolite formation by RP18-HPLC analysis; type: ADME, cell-based; settings: ccrf-cem
[17] = Drug metabolism in citrate-stabilized human plasma assessed as [hydroxy-[hydroxy-[hydroxy-[[(2S,5R)-5-(5-methyl-2,4-dioxo-pyrimidin-1-yl)-2,5-dihydrofuran-2-yl]methoxy]phosphoryl]oxy-phosphoryl]oxy-phosphoryl] octadecyl hydrogen phosphate formation by RP18-HPLC analysis; type: ADME, cell-free
[18] = Drug metabolism assessed as [hydroxy-[hydroxy-[hydroxy-[[(2S,5R)-5-(5-methyl-2,4-dioxo-pyrimidin-1-yl)-2,5-dihydrofuran-2-yl]methoxy]phosphoryl]oxy-phosphoryl]oxy-phosphoryl] octadecyl hydrogen phosphate formation in presence of pig liver esterase by RP-18-HPLC analysis; type: ADME, Sus scrofa; settings: isolated protein
[19] = Drug metabolism in human CEM/0 cells assessed as [hydroxy-[hydroxy-[hydroxy-[[(2S,5R)-5-(5-methyl-2,4-dioxo-pyrimidin-1-yl)-2,5-dihydrofuran-2-yl]methoxy]phosphoryl]oxy-phosphoryl]oxy-phosphoryl] octadecyl hydrogen phosphate formation by RP18-HPLC analysis; type: ADME, cell-based; settings: ccrf-cem
[20] = Drug metabolism in citrate-stabilized human plasma assessed as d4T formation by RP-18-HPLC analysis; type: ADME, cell-free
[21] = Drug metabolism in citrate-stabilized human plasma assessed as [4-[[hydroxy-[hydroxy-[hydroxy-[hydroxy-[[(2S,5R)-5-(5-methyl-2,4-dioxo-pyrimidin-1-yl)-2,5-dihydrofuran-2-yl]methoxy]phosphoryl]oxy-phosphoryl]oxy-phosphoryl]oxy-phosphoryl]oxymethyl]phenyl]-decanoate formation by RP-18-HPLC analysis; type: ADME, cell-free
[22] = Drug metabolism in human CEM/0 cells assessed as half life of d4T4P by RP18-HPLC analysis; type: ADME, cell-based; settings: ccrf-cem
[23] = Drug metabolism in human CEM/0 cells assessed as [4-[[hydroxy-[hydroxy-[hydroxy-[hydroxy-[[(2S,5R)-5-(5-methyl-2,4-dioxo-pyrimidin-1-yl)-2,5-dihydrofuran-2-yl]methoxy]phosphoryl]oxy-phosphoryl]oxy-phosphoryl]oxy-phosphoryl]oxymethyl]phenyl]-decanoate formation by RP18-HPLC analysis; type: ADME, cell-based; settings: ccrf-cem
[24] = Drug metabolism assessed as [4-[[hydroxy-[hydroxy-[hydroxy-[hydroxy-[[(2S,5R)-5-(5-methyl-2,4-dioxo-pyrimidin-1-yl)-2,5-dihydrofuran-2-yl]methoxy]phosphoryl]oxy-phosphoryl]oxy-phosphoryl]oxy-phosphoryl]oxymethyl]phenyl]-decanoate formation in presence of pig liver esterase by RP-18-HPLC analysis; type: ADME, Sus scrofa; settings: isolated protein
[25] = Drug metabolism assessed as d4T4P metabolite formation in presence of pig liver esterase by RP-18-HPLC analysis; type: ADME, Sus scrofa; settings: isolated protein
[26] = Selectivity index, ratio of CC50 for cytotoxicity against human CEM/TK- cells to EC50 for antiviral activity against HIV-2 ROD infected in human CEM/TK- cells; type: toxicity, cell-based; settings: read-out: Ratio CC50/EC50
[27] = Drug metabolism in citrate-stabilized human plasma assessed as d4TTP formation by RP18-HPLC analysis; type: ADME, cell-free
[28] = Drug metabolism in citrate-stabilized human plasma assessed as d4TMP formation by RP18-HPLC analysis; type: ADME, cell-free
[29] = Drug metabolism in citrate-stabilized human plasma assessed as [hydroxy-[hydroxy-[hydroxy-[[(2S,5R)-5-(5-methyl-2,4-dioxo-pyrimidin-1-yl)-2,5-dihydrofuran-2-yl]methoxy]phosphoryl]oxy-phosphoryl]oxy-phosphoryl]oxy-octadecyl-phosphinic acid formation by RP18-HPLC analysis; type: ADME, cell-free
[30] = Drug metabolism in citrate-stabilized human plasma assessed as d4TDP formation by RP18-HPLC analysis; type: ADME, cell-free

Drug metabolism [1]: Metabolite_Detected
Retention_time [2]: 14.5 min
Drug metabolism [3]: Metabolite_Detected
Drug metabolism [4]: Metabolite_Detected
t1/2 [5]: 0.633 h
SMILES: CCCCCCCCCCCCCCCCCCOP(=O)(OCCCC)OP(=O)(O)OP(=O)(O)OP(=O)(O)OC[C@@H]1C=C[C@H](n2cc(C)c(=O)[nH]c2=O)O1 (stereo partly drawn)

SMILES: CCCCCCCCCCCCCCCCCCOP(=O)(OCc1ccc(OC(=O)CCCC)cc1)OP(=O)(O)OP(=O)(O)OC[C@@H]1C=C[C@H](n2cc(C)c(=O)[nH]c2=O)O1 (stereo partly drawn)
EC50 [6]: 160 nM
EC50 [7]: 180 nM
half-life [8]: 237 h
selectivity ratio [9]: 76
CC50 [10]: 13000 nM
EC50 [11]: 170 nM

Retention_time [2]: 20.7 min
SMILES: CCCCCCCCCCCCCCCCCCOP(=O)(OCCCCCCCCCCCCCCCCCC)OP(=O)(O)OP(=O)(O)OP(=O)(O)OC[C@@H]1C=C[C@H](n2cc(C)c(=O)[nH]c2=O)O1

EC50 [6]: 41 nM
EC50 [7]: 70 nM
EC50 [11]: 32 nM
SMILES: CCCCCCCCCCCCCCCCCCOP(=O)(OCCCC)OP(=O)(O)OP(=O)(O)OC[C@@H]1C=C[C@H](n2cc(C)c(=O)[nH]c2=O)O1 (stereo partly drawn)

Retention_time [2]: 16 min
SMILES: CCCCCCCCCCCCCCCCOC(=O)Oc1ccc(COP(=O)(OCc2ccc(OC(=O)CCCC)cc2)OP(=O)(O)OP(=O)(O)OP(=O)(O)OC[C@@H]2C=C[C@H](n3cc(C)c(=O)[nH]c3=O)O2)cc1 (stereo partly drawn)

Retention_time [2]: 15.1 min
SMILES: CCCCCCCCCCCCCCCCCCP(=O)(OCC(CC)CCCC)OP(=O)(O)OP(=O)(O)OP(=O)(O)OC[C@@H]1C=C[C@H](n2cc(C)c(=O)[nH]c2=O)O1 (stereo partly drawn)

Retention_time [2]: 15.2 min
SMILES: CCCCCCCCCCCCCCCCCCOP(=O)(OCC(CC)CCCC)OP(=O)(O)OP(=O)(O)OP(=O)(O)OC[C@@H]1C=C[C@H](n2cc(C)c(=O)[nH]c2=O)O1 (stereo partly drawn)

Retention_time [2]: 13.2 min
SMILES: CCCCCCCCCCCCCCCCCCP(=O)(O)OP(=O)(O)OP(=O)(O)OP(=O)(O)OC[C@@H]1C=C[C@H](n2cc(C)c(=O)[nH]c2=O)O1
selectivity ratio [9]: 105

Retention_time [2]: 13.3 min
SMILES: CCCCCCCCCCCCCCCCCCOP(=O)(O)OP(=O)(O)OP(=O)(O)OP(=O)(O)OC[C@@H]1C=C[C@H](n2cc(C)c(=O)[nH]c2=O)O1

EC50 [6]: 21 nM
EC50 [7]: 7 nM
half-life [8]: 646 h
EC50 [11]: 42 nM
SMILES: CCCCCCCCCCCCCCCCCCP(=O)(OCc1ccc(OC(=O)CCCC)cc1)OP(=O)(O)OP(=O)(O)OC[C@@H]1C=C[C@H](n2cc(C)c(=O)[nH]c2=O)O1 (stereo partly drawn)
selectivity ratio [9]: 452

Retention_time [2]: 10.2 min
SMILES: CCCCOP(=O)(OCCCC)OP(=O)(O)OP(=O)(O)OP(=O)(O)OC[C@@H]1C=C[C@H](n2cc(C)c(=O)[nH]c2=O)O1

Retention_time [2]: 16.3 min
half-life [8]: 44 h
half-life [12]: 4.92 min
half-life [13]: 2.8 h
SMILES: CCCCCCCCCC(=O)Oc1ccc(COP(=O)(OCc2ccc(OC(=O)CCCCCCCCC)cc2)OP(=O)(O)OP(=O)(O)OC[C@@H]2C=C[C@H](n3cc(C)c(=O)[nH]c3=O)O2)cc1

Drug metabolism [14]: Metabolite_Detected
Retention_time [2]: 15.2 min
Drug metabolism [15]: Metabolite_Detected
Drug metabolism [3]: Metabolite_Detected
Drug metabolism [4]: Metabolite_Detected
Drug metabolism [16]: Metabolite_Detected
EC50 [11]: 6 nM
SMILES: CCCCCCCCCCCCCCCCCCP(=O)(OCc1ccc(OC(=O)CCCC)cc1)OP(=O)(O)OP(=O)(O)OP(=O)(O)OC[C@@H]1C=C[C@H](n2cc(C)c(=O)[nH]c2=O)O1 (stereo partly drawn)

Drug metabolism [17]: Metabolite_Detected
Retention_time [2]: 15.3 min
Drug metabolism [3]: Metabolite_Detected
Drug metabolism [18]: Metabolite_Detected
Drug metabolism [19]: Metabolite_Detected
Drug metabolism [4]: Metabolite_Detected
Drug metabolism [20]: Metabolite_Detected
Drug metabolism [16]: Metabolite_Detected
SMILES: CCCCCCCCCCCCCCCCCCOP(=O)(OCc1ccc(OC(=O)CCCC)cc1)OP(=O)(O)OP(=O)(O)OP(=O)(O)OC[C@@H]1C=C[C@H](n2cc(C)c(=O)[nH]c2=O)O1 (stereo partly drawn)

Retention_time [2]: 14.7 min
SMILES: CCCCCCCCCCCCOP(=O)(OCCCCCCCCCCCC)OP(=O)(O)OP(=O)(O)OP(=O)(O)OC[C@@H]1C=C[C@H](n2cc(C)c(=O)[nH]c2=O)O1

SMILES: CCCCCCCCCCCCCCCCCCP(=O)(OCCCC)OP(=O)(O)OP(=O)(O)OC[C@@H]1C=C[C@H](n2cc(C)c(=O)[nH]c2=O)O1 (stereo partly drawn)
EC50 [6]: 35 nM
EC50 [7]: 31 nM
EC50 [11]: 18 nM

Retention_time [2]: 10.2 min
SMILES: Cc1cn([C@H]2C=C[C@@H](COP(=O)(O)OP(=O)(O)OP(=O)(O)OP(=O)(O)O)O2)c(=O)[nH]c1=O
selectivity ratio [9]: 454

Retention_time [2]: 15.2 min
Drug metabolism [21]: Metabolite_Detected
t1/2 [22]: 0.367 h
Drug metabolism [3]: Metabolite_Detected
t1/2 [5]: 0.633 h
Drug metabolism [20]: Metabolite_Detected
Drug metabolism [23]: Metabolite_Detected
Drug metabolism [24]: Metabolite_Detected
Drug metabolism [25]: Metabolite_Detected
SMILES: CCCCCCCCCC(=O)Oc1ccc(COP(=O)(OCc2ccc(OC(=O)CCCCCCCCC)cc2)OP(=O)(O)OP(=O)(O)OP(=O)(O)OC[C@@H]2C=C[C@H](n3cc(C)c(=O)[nH]c3=O)O2)cc1

SMILES: Cc1cn([C@H]2C=C[C@@H](CO)O2)c(=O)[nH]c1=O [STAVUDINE]
selectivity ratio [26]: 1
selectivity ratio [9]: 1

Drug metabolism [1]: Metabolite_Detected
Drug metabolism [17]: Metabolite_Notdetected
Retention_time [2]: 14.4 min
Drug metabolism [27]: Metabolite_Notdetected
Drug metabolism [28]: Metabolite_Notdetected
Drug metabolism [3]: Metabolite_Detected
Drug metabolism [4]: Metabolite_Detected
Drug metabolism [29]: Metabolite_Notdetected
t1/2 [5]: 0.633 h
Drug metabolism [30]: Metabolite_Notdetected
SMILES: CCCCCCCCCCCCCCCCCCP(=O)(OCCCC)OP(=O)(O)OP(=O)(O)OP(=O)(O)OC[C@@H]1C=C[C@H](n2cc(C)c(=O)[nH]c2=O)O1 (stereo partly drawn)
